Patent US8609086B2, “Preparation created from an in vitro culture of dedifferentiated, non-elicited cells of the Argania tree, use thereof for treating skin ageing, inflammation and scarring, and production thereof” (Pierre Fabre Dermo-Cosmetique, priority 2010, dated 2013)

Assay: Anti-oxidizing activity by chemiluminescence (ACL kit), trolox equivalent
Assay type: biochemical
Conditions: anti-oxidizing power in trolox equivalent, trapping of superoxide anions
From the text: This method generates free radicals (superoxide radical O2^o−) by a photochemical signal. The intensity of oxidation is 1000 times greater than that obtained under normal conditions. Detection is done by chemiluminescence and is used to evaluate lipo or hydrosoluble anti-oxidizing extracts or molecules. The results are expressed as an equivalent quantity of vitamin C or Trolox (6-Hydroxy-2,5,7,8-tetramethylchroman-2-carboxylic acid). The sensitivity is of the order of one nanomole.
The analysis of the results depends on two criteria, namely the shape of the curve (integration) and the numerical value given by the software in nanomoles. (Igor Popov and Gudrun Lewin. Methods in enzymology vol 300. 437-456; Maibach I Howard and coll. Journal of Cosmetic Dermatology Vol 7(2) 96-100 (2008)).
The results will be expressed in μg of sample necessary to obtain an activity equivalent to the activity detected for 1 μg of standard (=trolox). (ACL Kit).
The anti-oxidizing activity studied in this test represents the ability to specifically trap superoxide anions by chemiluminescence.

Row | SMILES | ACL μg of sample for 1 μg of Trolox
1 | COC1=C(OC)C(=O)C(C/C=C(\C)CC/C=C(\C)CC/C=C(\C)CC/C=C(\C)CC/C=C(\C)CC/C=C(\C)CC/C=C(\C)CC/C=C(\C)CC/C=C(\C)CCC=C(C)C)=C(C)C1=O [Coenzyme 10] | 272 μg of sample for 1 μg of Trolox
2 | Cc1c(C)c2c(c(C)c1O)CCC(C)(C(=O)O)O2 (centres unmarked) [Trolox, 6-Hydroxy-2,5,7,8-tetramethylchroman-2-carboxylic acid] | 1 μg of sample for 1 μg of Trolox
